Where “and” joins values, the source holds several entries; their conditions need not be identical. Equal entries are not always repeated.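 Method: 48-hour compound exposure of cells in 96-well plates, five concentrations, linear interpolation of endpoints. Abbreviation: GI50, concentration required for 50% inhibition of growth. TGI is the concentration that stops growth completely.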
Experiments:
Assay in all cases: NCI anticancer screen, dose series, 48 h
DMS 114 small cell lung = tested on: DMS 114 small cell lung
HOP-18 NSCLC = tested on: HOP-18 NSCLC
LXFL 529 NSCLC = tested on: LXFL 529 NSCLC
RXF-631 renal = tested on: RXF-631 renal
SNB-78 CNS = tested on: SNB-78 CNS
XF 498 CNS = tested on: XF 498 CNS
MDA-N = tested on: MDA-N

Structure (SMILES)	TGI (DMS 114 small cell lung)	TGI (HOP-18 NSCLC)	TGI (LXFL 529 NSCLC)	TGI (RXF-631 renal)	TGI (SNB-78 CNS)	TGI (XF 498 CNS)	TGI (MDA-N)	GI50 (MDA-N)
Cc1ccc(SCC(O)=C2C(=O)CCCC2=O)cc1	> 100 µM	> 100 µM	> 100 µM	> 100 µM	> 100 µM	> 100 µM	–	–
CC(=O)Nc1cc2cc(NS(=O)(=O)c3cc(C(F)(F)F)cc(C(F)(F)F)c3)ccc2oc1=O	–	–	–	–	–	–	> 100 µM	–
O=C(O)Cc1cc(=O)[nH]c2c1C(=O)CCC2	–	> 100 µM	> 100 µM	–	–	> 100 µM	–	–
COc1cc2c3c(c1OC)Oc1ccc(cc1)CC1c4c(cc(OC)c(OC)c4Oc4ccc(cc4)CC3N(C)CC2)CCN1C (stereo unspecified)	35.9 µM	84.2 µM	39.6 µM	–	–	–	–	–
CC(=O)OCC(OC(C)=O)C(OC(C)=O)C(OC(C)=O)C(=O)CNn1c(-c2ccccc2Cl)nc2ccc(Br)cc2c1=O (stereo unspecified)	> 100 µM	–	> 100 µM	–	> 100 µM	66.2 µM	–	–
Cc1cc(O)c2c(c1)C(=O)C(c1c(C)cc3c(c1O)C(=O)C1OC1C3=O)=CC2=O (stereo unspecified)	–	–	–	–	–	–	2.75 µM	–
CCCCCCCCCCCCCCC(O)C1CCC(C(O)CCC(O)CCCCCC(O)CC2=CC(C)OC2=O)O1 (stereo unspecified)	4.57 µM	–	13 µM	16.4 µM	8.31 µM	4.88 µM	–	–
Cc1cc(Cl)ccc1NC(=O)CCCC(=O)C(C(=O)c1ccccc1)c1ccccc1 (stereo unspecified)	> 100 µM	–	> 100 µM	> 100 µM	> 100 µM	–	–	–
C[C@@H](c1ccccc1)N(CC#N)C1CCC[C@H]1O (stereo partly specified)	–	> 100 µM	–	> 100 µM	> 100 µM	> 100 µM	–	–
O=C(O)c1oc2cccc3c2c1CCC3	> 100 µM	–	> 100 µM	> 100 µM	> 100 µM	> 100 µM	–	–
O=C1C2=C(c3ccccc31)C(c1ccc(Cl)cc1)NC(=S)N2 (stereo unspecified)	67.5 µM	–	29.5 µM	–	–	–	–	–
S=c1[nH]nc(SCc2ccccc2Cl)c2[nH]cnc12	–	–	–	–	–	–	> 100 µM	–
C[C@H]1CCC/C=C/[C@@H]2C[C@H](O)C[C@H]2[C@H](O)[C@@H](SC2OC(CO)C(O)C(O)C2O)CC(=O)O1 (stereo partly specified)	–	–	–	–	–	–	> 100 µM	52.9 µM
O=C1NC(O)CCN1C1CC(O)C(CO)O1 (stereo unspecified)	–	–	–	–	–	–	> 100 µM	–
c1ccc(COc2cccc3cccnc23)cc1	> 100 µM	> 100 µM	> 100 µM	> 100 µM	–	> 100 µM	–	–
O=[N+]([O-])c1ccc(NC(=S)N/N=C(\c2ccccc2)c2ccccn2)cc1	–	–	–	–	–	–	3.32 µM and 3.1 µM	–
COc1cc(N=Nc2cccc(S(N)(=O)=O)c2)c2ccccc2c1N	–	–	–	–	–	–	5.63 µM	–
O=C1C2=C(c3ccccc31)C(c1ccc(F)cc1)N1C(=O)CCSC1=N2 (stereo unspecified)	> 100 µM	–	> 100 µM	–	–	> 100 µM	–	–

Structure (SMILES)	TGI (DMS 114 small cell lung)	TGI (HOP-18 NSCLC)	TGI (LXFL 529 NSCLC)	TGI (RXF-631 renal)	TGI (SNB-78 CNS)	TGI (XF 498 CNS)	TGI (MDA-N)	GI50 (MDA-N)
COC(=O)/C(=N/O)C(C(=O)OC)C(=O)C(=O)Nc1c(Cl)cc(C)cc1S(=O)(=O)O (stereo unspecified)	> 100 µM	> 100 µM	> 100 µM	> 100 µM	> 100 µM	> 100 µM	–	–
N[C@H](C(=O)O)[C@@H](Cl)CC(=O)O	> 100 µM	> 100 µM	> 100 µM	–	> 100 µM	> 100 µM	–	–
C[C@]12CC[C@H]3[C@@H](CCC4=C[C@@H](OC5OCC(OC6OC(CO)C(O)C(O)C6O)C(O)C5O)CC[C@@]43C=O)[C@@]1(O)CCC2C1=CC(=O)OC1 (stereo partly specified)	–	–	–	–	–	–	3.03 µM	–
COC(=O)c1nn(C(=N)c2ccc(Cl)cc2)c2c1CCCCC2	> 100 µM	–	> 100 µM	–	> 100 µM	–	–	–
O=C(Nc1ccccc1C(=O)O)C(=O)C(C(=O)c1ccccc1-c1ccccc1)C1OC(=O)c2ccccc21 (stereo unspecified)	–	28.2 µM	28 µM	–	> 100 µM	22 µM	–	–
CCOC(=O)NC(=O)c1cn(C2OC(CO)C(O)C2O)c(=O)[nH]c1=O (stereo unspecified)	> 100 µM	–	> 100 µM	> 100 µM	–	–	–	–
O=C(Nc1ccccc1C(=O)Nc1nccs1)c1ccccc1	–	–	–	–	–	–	> 100 µM	–
[N-]=[N+]=Nc1c(Br)c(=O)[nH]c(=O)n1COCCO	> 100 µM	> 100 µM	> 100 µM	> 100 µM	> 100 µM	> 100 µM	–	–
Cc1c(N)nc(C(CC(N)=O)NCC(N)C(N)=O)nc1C(=O)NC(C(=O)NC(C)C(O)C(C)C(=O)NC(C(=O)NCCc1nc(-c2nc(C(=O)NCCCNCCCCN)cs2)cs1)C(C)O)C(OC1OC(CO)C(O)C(O)C1OC1OC(CO)C(O)C(OC(N)=O)C1O)c1cnc[nH]1 (stereo unspecified)	> 10 µM	> 10 µM	> 10 µM	> 10 µM	> 10 µM	> 10 µM	–	27.4 mg/L
CN/N=C(\C(=O)Nc1ccc([N+](=O)[O-])cc1[N+](=O)[O-])C1NC(=O)NC1=O (stereo unspecified)	> 100 µM	> 100 µM	> 100 µM	–	> 100 µM	–	–	–
CNC(C)Cc1ccc(O)cc1 (stereo unspecified)	> 100 µM	> 100 µM	> 100 µM	> 100 µM	> 100 µM	> 100 µM	–	–
COc1cc(C(=O)C/C(CCC(=O)Nc2ccc(Cl)cc2Cl)=N/Nc2nnc(C)n2N)ccc1O	–	> 100 µM	> 100 µM	–	> 100 µM	> 100 µM	–	–
COc1ccc(/C=C/c2cnc3ccccc3n2)cc1OC	–	–	–	–	–	–	> 100 µM	–
COC(=O)C12C3C4C1C1C2C3C41C(=O)N(C(C)C)C(C)C (stereo unspecified)	> 100 µM	–	> 100 µM	–	> 100 µM	–	–	–
COc1cccc2ccc3c(c12)C(=O)OC31CCc2c(C)cccc21 (stereo unspecified)	> 31.6 µM	> 31.6 µM	> 31.6 µM	–	> 100 µM	86.2 µM	> 100 µM	–
Cc1cccc(O)c(=O)c1	45.7 µM	> 100 µM	> 100 µM	–	> 100 µM	–	–	–
COC(=O)C1=C(c2cc(OC)c(OC)c(OC)c2)O[C@H](c2ccc3c(c2)OCO3)[C@H]1COC(C)=O	–	> 100 µM	69.2 µM	> 100 µM	> 100 µM	> 100 µM	–	–

Source: PubChem BioAssay (NCI)
